Experimental data reported in ChEMBL document CHEMBL5233273, “An overview of hydroxypyranone and hydroxypyridinone as privileged scaffolds for novel drug discovery” (Eur J Med Chem, 2021).
pEC50, pIC50, pKi: −log10 of the molar value. ≈ marks a conversion by molar mass, not a printed value. Each block holds one compound with its values, some of them ahead of it.

Experiments:
Tyrosinase [1] = biological target: T1, Tyrosinase (Agaricus bisporus, UniProt O42713); experiment: Inhibition of mushroom tyrosinase
T1 sequence (O42713 whole entry): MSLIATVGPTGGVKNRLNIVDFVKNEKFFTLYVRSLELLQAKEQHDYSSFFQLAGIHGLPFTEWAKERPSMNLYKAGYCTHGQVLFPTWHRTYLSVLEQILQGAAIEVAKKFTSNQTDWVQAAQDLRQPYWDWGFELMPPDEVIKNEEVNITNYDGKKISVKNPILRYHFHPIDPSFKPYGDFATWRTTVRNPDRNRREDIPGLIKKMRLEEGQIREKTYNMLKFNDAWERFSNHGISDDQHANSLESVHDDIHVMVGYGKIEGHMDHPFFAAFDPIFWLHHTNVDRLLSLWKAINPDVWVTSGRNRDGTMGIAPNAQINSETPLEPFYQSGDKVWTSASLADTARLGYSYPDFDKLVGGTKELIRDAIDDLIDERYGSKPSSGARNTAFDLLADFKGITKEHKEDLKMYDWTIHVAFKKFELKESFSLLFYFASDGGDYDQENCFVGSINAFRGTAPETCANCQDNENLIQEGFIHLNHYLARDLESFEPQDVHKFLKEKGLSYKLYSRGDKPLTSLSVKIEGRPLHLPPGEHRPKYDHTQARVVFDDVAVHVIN

B16-F10 = experiment: Inhibition of tyrosinase in mouse B16-F10 cells assessed as inhibition of melanin production at 5 ug relative to control; type: cell-based; conditions: dose 5.0 µg
Candida albicans = experiment: Antifungal activity against Candida albicans ATCC 90028; type: functional
HeLa = experiment: Cytotoxicity against human HeLa cells; type: functional, cell-based
DU-145 = experiment: Cytotoxicity against human DU-145 cells; type: functional, cell-based
A549 = experiment: Cytotoxicity against human A549 cells; type: functional, cell-based
Staphylococcus aureus [2] = experiment: Antibacterial activity against Staphylococcus aureus; type: functional
Staphylococcus aureus [3] = experiment: Antibacterial activity against Staphylococcus aureus assessed as zone of inhibition; type: functional
Histamine H3 receptor = Histamine H3 receptor (Homo sapiens, UniProt Q9Y5N1); experiment: Binding affinity to human H3R expressed in HEK293 cells membrane; type: cell membranes
Sequence of Histamine H3 receptor (Q9Y5N1 whole entry): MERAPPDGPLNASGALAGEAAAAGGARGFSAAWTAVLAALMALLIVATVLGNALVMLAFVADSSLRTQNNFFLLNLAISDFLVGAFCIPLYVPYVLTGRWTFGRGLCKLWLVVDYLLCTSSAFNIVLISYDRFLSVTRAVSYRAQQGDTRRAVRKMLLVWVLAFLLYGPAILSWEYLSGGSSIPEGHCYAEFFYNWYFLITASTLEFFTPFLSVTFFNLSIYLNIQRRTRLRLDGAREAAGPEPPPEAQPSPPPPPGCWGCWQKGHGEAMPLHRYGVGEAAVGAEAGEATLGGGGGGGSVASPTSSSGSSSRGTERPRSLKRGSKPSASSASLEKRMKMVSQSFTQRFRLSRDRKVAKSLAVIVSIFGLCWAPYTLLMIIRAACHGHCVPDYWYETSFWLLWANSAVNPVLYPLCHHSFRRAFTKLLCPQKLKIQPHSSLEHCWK

[4] = Neuroprotective activity in CGC cells assessed as inhibition of lipid peroxidation; type: functional, cell-based; conditions: cerebellar granule neurone
DNA gyrase = DNA gyrase (Escherichia coli, UniProt P0AES4+P0AES6); experiment: Inhibition of Escherichia coli DNA gyrase; type: protein-complex assay
[5] = test system: Mycolicibacterium smegmatis; experiment: Antimycobacterial activity against Mycobacterium smegmatis; type: functional
Pseudomonas aeruginosa = experiment: Antibacterial activity against Pseudomonas aeruginosa; type: functional
Bacillus subtilis = experiment: Antibacterial activity against Bacillus subtilis; type: functional
Escherichia coli = experiment: Antibacterial activity against Escherichia coli; type: functional
[6] = Antioxidant activity assessed as DPPH radical scavenging activity; type: functional
Hepatitis C virus = experiment: Antiviral activity against HCV; type: functional, organism-based, Hepacivirus hominis
Tyrosinase [7] = biological target: T1, Tyrosinase; experiment: Inhibition of mushroom tyrosinase diphenolase activity
Tyrosinase [8] = biological target: T1, Tyrosinase; experiment: Inhibition of mushroom tyrosinase monophenolase activity
[9] = Inhibition of HIV-1 integrase; parameters: species or system Human immunodeficiency virus 1
[10] = biological target: T2, Tyrosinase (Agaricus bisporus) (UniProt O42713); experiment: Potency index, ratio of kojic acid IC50 to test compound IC50 for inhibition of mushroom tyrosinase
T2 sequence (whole entry): T1 sequence (O42713 whole entry)

RAW264.7 = experiment: Antiinflammatory activity in mouse RAW264.7 assessed as reduction in LPS-induced PGE2 production; type: functional, cell-based

pIC50 (Tyrosinase [1]): 7.22
Structure (SMILES): O=c1cc(Cn2cc(COc3ccc(F)cc3)nn2)occ1O

Structure (SMILES): O=c1cc(/C=C/c2cc(=O)c(O)co2)occ1O
inhibition (B16-F10): 19.5%

pIC50 (Tyrosinase [1]): 7.22
Structure (SMILES): O=c1cc(Cn2cc(COc3ccccc3)nn2)occ1O

MIC (Candida albicans): 64 µg/mL (≈ 204 µM)
Structure (SMILES): Cc1cc(=O)c(O)c(CN2CCN(Cc3ccccc3)CC2)o1

pIC50 (Tyrosinase [1]): 7.22
Structure (SMILES): O=c1cc(Cn2cc(COc3ccc([N+](=O)[O-])cc3)nn2)occ1O

MIC (Candida albicans): 64 µg/mL (≈ 191 µM)
Structure (SMILES): Cc1cc(=O)c(O)c(CN2CCN(c3ccccc3Cl)CC2)o1

pIC50 (Tyrosinase [1]): 5.82
Structure (SMILES): O=C(OCc1cc(=O)c(O)co1)c1ccc2c(c1)OCCO2

Structure (SMILES): CC(C)(C)[Si](C)(C)OCc1cc(=O)c(O)c(C(C[N+](=O)[O-])c2cccc(Cl)c2)o1 (configuration not stated)
pIC50 (HeLa): 5.00
pIC50 (DU-145): 4.85
pIC50 (A549): 5.05

pIC50 (Tyrosinase [1]): 7.22
Structure (SMILES): O=c1cc(Cn2cc(COc3ccc(Cl)cc3Cl)nn2)occ1O

MIC (Staphylococcus aureus [2]): 32 µg/mL (≈ 130 µM)
Structure (SMILES): Cn1cc(O)c(=O)cc1C(=O)Nc1cccnc1

Structure (SMILES): O=C(/C=C/c1ccc(C(=O)OCc2cc(=O)c(O)co2)cc1)c1ccc(Br)cc1
inhibition zone (IZ) (Staphylococcus aureus [3]): 8 mm

pKi (Histamine H3 receptor): 7.50
Structure (SMILES): O=c1cc(CNCc2ccc(OCCCN3CCCCC3)cc2)occ1O

pIC50 [4]: 6.52
Structure (SMILES): Cc1c(O)c(=O)ccn1CCc1cc(C(C)(C)C)c(O)c(C(C)(C)C)c1

pIC50 (DNA gyrase): 6.59
Structure (SMILES): Cc1[nH]c(C(=O)N[C@H]2CCc3nc(NC(=O)[C@H](C)NC(=O)c4cc(=O)c(O)c[nH]4)sc3C2)c(Cl)c1Cl

pIC50 (Tyrosinase [1]): 7.22
Structure (SMILES): O=c1cc(Cn2cc(COc3cccc(Cl)c3)nn2)occ1O

MIC [5]: 8 µg/mL (≈ 26.7 µM)
Structure (SMILES): Cc1cc(=O)c(O)c(CN2CCC(c3ccccc3)CC2)o1

pIC50 (Tyrosinase [1]): 7.22
Structure (SMILES): O=c1cc(Cn2cc(COc3cccc(F)c3)nn2)occ1O

MIC (Pseudomonas aeruginosa): 16 µg/mL (≈ 19.6 µM)
MIC (Bacillus subtilis): 8 µg/mL (≈ 9.81 µM)
MIC (Staphylococcus aureus [2]): 8 µg/mL (≈ 9.81 µM)
MIC (Escherichia coli): 8 µg/mL (≈ 9.81 µM)
Structure (SMILES): CCCC(=O)NC(CCCNC(=O)c1c(O)c(=O)ccn1CCO)(CCCNC(=O)c1c(O)c(=O)ccn1CCO)CCCNC(=O)c1c(O)c(=O)ccn1CCO

Structure (SMILES): CCOC(=O)CC(c1ccccc1)c1oc(CO)cc(=O)c1O (configuration not stated)
Activity [6]: 58.2%

MIC [5]: 8 µg/mL (≈ 30.1 µM)
Structure (SMILES): CCC1CCC(C)N(Cc2oc(C)cc(=O)c2O)C1 (configuration not stated)

pIC50 (Tyrosinase [1]): 7.22
Structure (SMILES): COc1cc(OCc2cn(Cc3cc(=O)c(O)co3)nn2)cc(OC)c1OC

MIC [5]: 8 µg/mL (≈ 25.4 µM)
Structure (SMILES): Cc1cc(=O)c(O)c(CN2CCC(c3ccc(O)cc3)CC2)o1

pEC50 (Hepatitis C virus): 5.59
pIC50 (Tyrosinase [1]): 4.70
Structure (SMILES): COc1ccc(C(=O)OCc2cc(=O)c(O)co2)cc1

pIC50 (Tyrosinase [1]): 7.22
Structure (SMILES): COc1cc(OC)cc(OCc2cn(Cc3cc(=O)c(O)co3)nn2)c1

pEC50 (Hepatitis C virus): 5.56
Structure (SMILES): O=C(OCc1cc(=O)c(O)co1)c1ccc2ccccc2c1

pIC50 (Tyrosinase [7]): 5.10
pIC50 (Tyrosinase [8]): 5.80
Structure (SMILES): CCCCCCCCn1cc(O)c(=O)cc1/C=N/OCC

pEC50 [9]: 6.15
pIC50 [9]: 6.43
Structure (SMILES): Cc1cc(=O)c(O)c(C(=O)NCc2ccc(F)cc2)o1

MIC (Candida albicans): 64 µg/mL (≈ 201 µM)
Structure (SMILES): Cc1cc(=O)c(O)c(CN2CCN(c3ccccc3F)CC2)o1

Ratio IC50 [10]: 5
pIC50 (Tyrosinase [1]): 4.06
Structure (SMILES): O=c1cc(CO)oc(CN2CCN(Cc3ccc(Cl)c(Cl)c3)CC2)c1O

MIC (Candida albicans): 64 µg/mL (≈ 194 µM)
Structure (SMILES): COc1ccccc1N1CCN(Cc2oc(C)cc(=O)c2O)CC1

MIC [5]: 8 µg/mL (≈ 31.6 µM)
Structure (SMILES): Cc1cc(=O)c(O)c(CN2CCCC(CO)C2)o1 (configuration not stated)

pIC50 (DNA gyrase): 6.19
Structure (SMILES): Cc1[nH]c(C(=O)N[C@H]2CCc3nc(NC(=O)[C@@H](NC(=O)c4cc(=O)c(O)c[nH]4)C(C)C)sc3C2)c(Cl)c1Cl

pIC50 (RAW264.7): 5.49
Structure (SMILES): O=c1cc(/C=C/c2ccc(O)cc2)occ1O

MIC [5]: 8 µg/mL (≈ 30.1 µM)
Structure (SMILES): CCCC1CCCCN1Cc1oc(C)cc(=O)c1O (configuration not stated)

MIC (Candida albicans): 64 µg/mL (≈ 191 µM)
Structure (SMILES): Cc1cc(=O)c(O)c(CN2CCN(c3ccc(Cl)cc3)CC2)o1

MIC [5]: 8 µg/mL (≈ 30.1 µM)
Structure (SMILES): CCCC1CCN(Cc2oc(C)cc(=O)c2O)CC1

pIC50 [4]: 6.40
Structure (SMILES): Cc1c(O)c(=O)ccn1CCSc1cc(C(C)(C)C)c(O)c(C(C)(C)C)c1

pIC50 (DNA gyrase): 6.74
Structure (SMILES): O=C(N[C@H]1CCc2nc(NCc3cc(=O)c(O)co3)sc2C1)c1cc(Br)c(Br)[nH]1

MIC (Candida albicans): 64 µg/mL (≈ 194 µM)
Structure (SMILES): COc1cccc(N2CCN(Cc3oc(C)cc(=O)c3O)CC2)c1

pKi (Histamine H3 receptor): 8.00
Structure (SMILES): O=c1cc(CN(Cc2ccc(OCCCN3CCCCC3)cc2)Cc2cc(=O)c(O)co2)occ1O

MIC [5]: 8 µg/mL (≈ 33.4 µM)
Structure (SMILES): Cc1cc(=O)c(O)c(CN2CCCC(O)C2)o1 (configuration not stated)

MIC [5]: 8 µg/mL (≈ 33.7 µM)
Structure (SMILES): Cc1cc(=O)c(O)c(CN2CCCC(C)C2)o1 (configuration not stated)

MIC (Candida albicans): 64 µg/mL (≈ 201 µM)
Structure (SMILES): Cc1cc(=O)c(O)c(CN2CCN(c3ccc(F)cc3)CC2)o1
